For assay [1], the system named is Saos-2 osteosarcoma cells. Nature of the assay: MTT assay, cell viability of Saos-2. In kind it is cell-based. As to conditions: Homo sapiens, read-out: IC50 against Saos-2. As for the experimental part: HeLa, Saos-2, HS-5, HepG2, T98G, and A2780 cells were purchased from American-type Culture Collection (ATCC, USA). A2780cis cell was purchased from Sigma. HeLa cells, HepG-2 cells, and T98G cells were cultured in MEM Medium supplemented with 10% v/v fetal bovine serum, 100 U/mL penicillin, and 100 μg/mL streptomycin. Saos-2 cells were cultured in McCoy's 5a Medium (for Saos-2) supplemented with 15% v/v fetal bovine serum, 100 U/mL penicillin, and 100 μg/mL streptomycin. HS-5 cells were cultured in Dulbecco's Modified Eagle's medium (DMEM) supplemented with 10% v fetal bovine serum (FBS), 100 U/mL penicillin, and 100 μg/mL streptomycin. A2780cis cells were cultured in RPMI 1640 Medium supplemented with 10% v/v fetal bovine serum, 100 U/mL penicillin, and 100 μg/mL streptomycin (cisplatin only necessary every 2-3 passages). All cells were maintained at 37° C. in a humidified atmosphere of 5% CO2.
An MTT assay was used to test the cytotoxicity. All different cell lines were seeded in 96-well plates at 1×10^5 cells/well for 24 hours followed by removal of the culture medium and subsequent addition of culture medium containing different concentrations of the precursors. […] The absorbance of each well at 595 nm was measured by a multimode microplate reader. […]
Background: Tetrazolium dyes change colour on reduction, which living cells bring about.

Assay [2] relates to Kuramochi ovarian cancer cells. The assay is described as follows: MTT assay, cell viability of Kuramochi. In kind it is cell-based. The following applies: read-out: IC50 against Kuramochi. As for the experimental part:
An MTT assay was used to test the cytotoxicity. All different cell lines were seeded in 96-well plates at 1×10^5 cells/well for 24 hours followed by removal of the culture medium and subsequent addition of culture medium containing different concentrations of the precursors. At designated time (24/48/72 hours), 10 μL MTT solution (5 mg/mL) was added to each well and incubated at 37° C. for another 4 hours, and then 100 μL of SDS-HCl solution was added to stop the reduction reaction and dissolve the purple formazan. The absorbance of each well at 595 nm was measured by a multimode microplate reader. The cytotoxicity assay was performed three times and the average value of the three measurements was taken.
Additional cell viability assays were carried out using conjugates 1a and 1b, optionally with 3, against HepG2 human liver carcinoma cells, Saos-2 osteosarcoma cells, T98G glioblastoma cells, HS-5 (normal bone marrow stromal cells), A2780 ovarian cancer cells (parental line to A2780cis), and Kuramochi ovarian cancer cells. Conjugate 1a was particularly effective against ovarian and cervical cancer cells.

For assay [3], the system named is ER stress markers and ROS in A2780cis and HeLa cells. Nature of the assay: Western blot of ER stress markers and CLSM detection of ROS. The following applies: 1a 12.5 μM, 12 hours for ROS. In kind it is cell-based, human. As for the experimental part:
(§1) Further exploration of the mode of action of 1a against A2780cis and HeLa cells was carried out via Western blot for the following ER stress markers: CHOP, Bip, PDI, IRE1α, Calnexin, Erol-Lα, PERK, and β-actin; or p-SAPK/JNK. Western blot was carried out via gel electrophoresis at […] for 1.5 hrs, and then transferring the protein on the gel to PVDF membranes for overnight at […] (4° C.). After that, the membrane was incubated with primary antibodies (obtained from Cell Signaling Technology) overnight at 4° C. The membrane was then incubated with secondary antibodies for 1 h at room temperature. This was followed by the reaction with ECL solutions for 10 minutes, and analysis of the results by autoradiography. Generation of ROS was detected in CLSM images via DHE emissions in exposed cells. CLSM imaging was carried out at the excitation of 543 nm and DHE emission was detected at the wavelength at 575 nm to 625 nm; or detection of anti-phospho-SRC and anti-phospho-Akt.
Background: Immunoblotting shows a protein as a band on a membrane.

Assay [4] has as its system Src, Akt, p-SAPK/JNK in A2780cis cell lines. The assay is described as follows: Expression of Src, Akt and p-SAPK/JNK (CLSM, Western blot). In kind it is cell-based, human. As for the experimental part: as §1
In addition, 1a causes down regulation of cell survival proteins, Akt (Alexander, “Inhibiting the Akt Pathway in Cancer Treatment,” Pharmacy & Therapeutics 36(4): 225-227 (2011), which is hereby incorporated by reference in its entirety) and Src (Irby et al., “Role of Src Expression and Activation in Human Cancer,” Oncogene 19(49):5636-5642 (2000), which is hereby incorporated by reference in its entirety). […]

The term IC50 denotes the concentration that inhibits the measured activity by half.

Structures are written as SMILES. Read-outs that look alike come from different tables or passages of the source.

`CC(C)CCC[C@@H](C)C1CC[C@H]2[C@@H]3CC=C4CC(OC(=O)NC(Cc5ccc(OP(=O)(O)O)cc5)C(=O)O)CC[C@]4(C)[C@H]3CC[C@]12C` (stereo partly drawn) [1a, Cholesterol-(phospho)D-Tyr]: the IC50 is 41 µM in assay [1] (48 hours), 26 µM in assay [1] (72 hours), 19 µM in assay [2] (48 hours) and 13 µM in assay [2] (72 hours). For the same compound, the “ER stress markers and ROS generation” value in assay [3] was “induces cell apoptosis via ER stress and generation of ROS”. In addition, the “expression of Src and Akt” value in assay [4] (1a 12.5 μM, 24 hours) is “downregulates”. For the same compound, in assay [4] (24 hour treatment, Western blot), the p-SAPK/JNK expression levels result is reported as “enhanced”.

(Values after patent US11040108B2, “Amino acid- and peptide-steroid conjugates and use thereof” (BRANDEIS UNIVERSITY, priority 2016, dated 2021).)
